Experimental data reported in paper PMC4949444 (Scientific Reports, 2016).

Columns and labels:
[1] = Cysteamine recovery assay (thiol trapping)
Protocol: cysteamine to form polar and not extractable adducts.
(§1) Determination of ROS: N2a cells were seeded at 25x 10^3 cells/ml in 96-well plates and incubated with 0.25 ȝM 5-(and-6 )-chloro meth yl-2ƍ,7ƍ-dichlorodihydrofluorescein diacetate acet yl ester (C M-H 2 DCFDA) for 20 minutes at 37°C. Then, the cells were treated with either VCE-003 or VCE-003.2 for 2 hours. Cells exposed to pro-oxidant tert-Butyl h ydroperoxide (TBHP) were used as positive control. H 2 DCFDA oxidation was detected using an Incuc yteTM Live-Cell Imaging S ystem (Hertfordshire, UK).
(§2) Nrf2 transcriptional assay: To study Nrf2 transcriptional activity N2a cells were seeded (105/ml) in 24-well plates and transientl y transfected with the plasmid NQO1-ARE-Luc using Roti©-Fect following the manufacturer’s instructions (Carl Roth, Karlsruhe, German y). After 24 hours, cells were incubated wi th the compounds at the concentrations indicated during 6 hours and the luciferase activit y was determined using an Autolumat LB 953 (EG&G Berthold, Bad Wildbad, Germany). Protein content was determined b y the Bradford method to calculate R LU/Pg of protein and the results were expressed as a fold induction over untreated cells.

Nrf2 pathway = assay: Nrf2 transcriptional assay (NQO1-ARE-Luc) in N2a cells; type: cell-based; conditions: 6 hours
Protocol: as §2
Supplementary Figure S1. Non-elect rophilic activity for VCE-003.2. (a) Reactive ox ygen species production.
In cu c yt e TM Liv e-Cell Im agin g S ystem. Results are ex pressed as m ean of t otal integrated intensity (ROS positive cells) ± S.D. (b) Effect on Nrf2 transcriptional activity. N2a cells were transientl y trans fected with the NQO1-ARE-Luc plasmid and incubated with the indicated compound concentrations for 6 hours prior to luciferase activit y determination.
Results are expressed as the fold induction ± S.D. relative to untreated control. All the results are representative of at least three independent experiments. Statistics: **p<0.01 VCE-003 treatment vers us Vehicle treated cells.

N2a cells [2] = assay: N2a cytotoxicity assay (MTT); type: cell-based; conditions: 24 hours
Protocol: Figure 1 VCE-003.2 synthesis and characterization. (a) Schematic representation of VCE-003.2 synthesis. […] The indicated concentrations were tested and results were plotted to obtain the polynomial trend on a logarithmic range. IC50 values are indicated within the graph. […]. HEK293 cells were co-transfected with GAL4-PPARγ and GAL4-luc and incubated with the indicated compound concentrations for 6 hours prior to luciferase activity determination. Results are expressed as the fold induction ± S.D. relative to untreated control. (d) N2a cells were incubated with VCE-003 and VCE-003.2 as indicated during 24 hours and cell viability was determined by the MTT assay. Results are expressed as percentage of cell viability against the negative control (100%). (e) N2a cells were pre-treated with the compounds for 30 min and incubated during 24 h with 15 mM glutamate and cell viability determined by MTT. Results are expressed as percentage of cell viability against the negative control (100%). All experiments are shown as mean ± S.D. from at least three independent experiments. Statistics: *^,#,†p < 0.05, **^,##,††p < 0.01 and ***^,###p < 0.001. […] | Briefly, N2a cells were seeded at a density of 1 × 10^3 cells/well in 96-well plates, treated with increasing concentrations of VCE-003 or VCE-003.2 for 24 hours and cell viability was measured by the MTT method. […]. […]

N2a cells [3] = assay: Reactive oxygen species production in N2a cells (CM-H2DCFDA); type: cell-based; conditions: 2 hours
Protocol: as §1
Supplementary Figure S1. Non-elect rophilic activity for VCE-003.2. (a) Reactive ox ygen species production. N2a cells were stained with CM-H2DCFDA and treated with VCE-003 or VCE-003.2 for 2 hours. Then, reactive ox ygen sp ecies were measured b y In cu c yt e TM Liv e-Cell Im agin g S ystem. Results are ex pressed as m ean of t otal integrated intensity (ROS positive cells) ± S.D. (b) Effect on Nrf2 transcriptional activity.
VCE-003 treatment vers us Vehicle treated cells.

[4] = test system: 3NP-lesioned C57BL/6 mice; assay: 3-nitropropionic acid (3NP) model of Huntington's disease; type: in vivo; conditions: for COX-2 (2expΔΔct) / IL-6 (2expΔΔct) / TNF-α (2expΔΔct): striatum mRNA, mean ± SEM n=6; for COX-2 (2expΔΔct) / IL-6 (2expΔΔct) / TNF-α (2expΔΔct) / % GSH / % SOD activity / %Catalase activity: substance alone; for % GSH / % SOD activity / %Catalase activity: striatum, % of vehicle-treated control
Protocol: Figure 7 VCE-003.2 is neuroprotective in 3NP-intoxicated mice. (a) Behavioural score was determined 12 hours after 3NP intoxication. Mice were treated with VCE-003.2 (20 mg/Kg) alone or combined with T0070907 (5 mg/kg) as indicated. Animals were also treated separately with either VCE-003.2 or T0070907 alone. Hind limb clasping, general locomotor activity, hind limb dystonia and kyphosis were rated from 0 to 2 based on severity (score 0 indicates normal function and 2 indicates the most severe affected function). Values are expressed as means ± SEM (n = 6). (b) Representative images of Nissl staining performed on coronal striatal brain sections from the same mice groups. Photomicrographs of NeuN (Bar size, 50 μm) Iba-1 and glial fibrillary acidic protein (GFAP) immunostained sections through the different group of mice are also shown. (c) Quantification of the different markers was performed with Image J software. Total average number of neurons (NeuN^+), microglia (Iba1^+) and astrocytes (GFAP^+) is shown. Values are expressed as means ± SEM (n = 6). *p < 0.05, **p < 0.01, ***p < 0.001 vs. Vehicle; ^#p < 0.05, ^##p < 0.01, ^###p < 0.001 vs. 3NP; †p < 0.05, ^††p < 0.01, ^†††p < 0.001 vs. the 3NP + VCE-003.2 group.
Mice were housed under standard conditions (12-h light/dark cycle) in groups with access to food and water ad libitum. All experiments were performed in accordance with European Union guideline and approved by the Animal Research Ethic Committee of Córdoba University (2014PI/017) (3NP model) and by the Animal Research Ethic Committee of Complutense University (CEA-UCM 73/2012) (QA model). Procedures were designed to minimize the number of animals used and their suffering. Excitotoxicity was induced by intrastriatal quinolinic acid (QA) administration (100 nmol in 1 μL PBS solution, unilaterally) as previously described[41] at the following coordinates: +0.6 posterior to bregma, +1.85 medio-lateral and -2.7 dorso-ventral to dura, in 12-week-old CD1 male mice (Harlan Ibérica, Barcelona, Spain). Pharmacological manipulation with VCE-003.2 (10 mg/kg body weight) was performed i.p. daily in 2% Tween 20 and 3% DMSO in saline buffer until sacrifice. Control animals received the corresponding vehicle injections. Motor function was assessed by RotaRod analysis conducted with acceleration from 4 to 40 rpm over a period of 570 s in an LE8200 device (Harvard Apparatus, Barcelona, Spain). […] 3NP-treated animals and their respective non-lesioned controls (injected with PBS) were used for pharmacological studies with VCE-003.2. Treatments consisted of 4 i.p. injections every 24 h with 20 mg/kg VCE-003.2 or vehicle (4% DMSO plus 6,2% Tween 20 in saline buffer), with the first and the last injections 30 min before the first and the last injections of 3NP, respectively. In some experiments, mice received a combination of VCE-003.2 and the PPARγ antagonist T0070907 (5 mg/kg) injected 15 minutes before VCE-003.2. In 3NP-lesioned mice, motor activity, hindlimb clasping, dystonia, and truncal dystonia were evaluated following previously described procedures. All behavioural tests were conducted prior to drug injections to avoid acute effects of the compounds under investigation and all animals were euthanized 12 h after the last injection of 3NP and their brains removed. The right hemispheres were used to dissect the striatum which was frozen in RNAlater (Sigma-Aldrich) and stored at −80 °C for biochemical analyses. The left hemispheres were fixed in fresh 4% paraformaldehyde (in 0.1 M PBS) for 48 h at 4 °C and embedded in paraffin wax for staining and immunohistochemical analysis. In all experiments, at least 6 animals were used per experimental group.
Free floating coronal brain slices ([…]) were processed as previously described. […]

3NP-lesioned mice = conditions: cited from earlier work
Keap1/Nrf2 pathway = Keap1/Nrf2 pathway activation (unpublished results)

Structure (SMILES)	behavioural score, substance alone ([4]; mice given the substance alone)	COX-2 (2expΔΔct) [4]	IL-6 (2expΔΔct) [4]	TNF-α (2expΔΔct) [4]	% GSH [4] [%]	% SOD activity [4]	%Catalase activity [4]	further results
CCCCCC1=CC(=O)C(C/C=C(\C)CCC=C(C)C)=C(O)C1=O [VCE-003, reference compound]	–	–	–	–	–	–	–	recovery after treatment with cysteamine (thiol-trapping reactivity) [1]: undetectable in the residue; activation of the Nrf2 pathway (Nrf2 pathway): activated the Nrf2 pathway; cell viability / cytotoxic activity (N2a cells [2]): clear cytotoxic activity at the highest concentrations tested; induction of reactive oxygen species (ROS) (N2a cells [3]): induced reactive oxygen species (ROS)
O=C(Nc1ccncc1)c1cc([N+](=O)[O-])ccc1Cl [T0070907, reference compound]	Neither VCE-003.2 nor T0070907 alone influenced the behavior of the animals	1.45 ± 0.82 2expΔΔct	1.57 ± 0.51 2expΔΔct	1.54 ± 0.75 2expΔΔct	115.82 ± 11.23	97.61 ± 27.44%	92.18 ± 4.1%	–
O=C(O)CC[N+](=O)[O-] [3NP, 3-nitropropionic acid, reference compound]	high scores in hindlimb clasping, locomotor activity, hindlimb dystonia and kyphosis	4.69 ± 0.09^* 2expΔΔct	4.28 ± 0.08^* 2expΔΔct	5.19 ± 0.327^** 2expΔΔct	67.16 ± 5.06	56.56 ± 1.05^** %	58.85 ± 2.17^*** %	number of neurons in the striatum (Nissl, NeuN), substance alone ([4]; mice given the substance alone): reduced the number of neurons in the striatum
CCCCCc1cc(O)c(C/C=C(\C)CCC=C(C)C)c(O)c1 [CBG, cannabigerol]	–	–	–	–	–	–	–	levels of GSH in the brain (3NP-lesioned mice): restores the levels of GSH in the brain of 3NP-lesioned mice
C=C(C)[C@@H]1CCC(C)=C[C@H]1C1=C(O)C(=O)C(CCCCC)=CC1=O [CBD-hydroxy-quinone]	–	–	–	–	–	–	–	activation of the Keap1/Nrf2 pathway (Keap1/Nrf2 pathway): activates the Keap1/Nrf2 pathway
